Data taken from US20240317732A1, “A NEW MOLECULAR SCAFFOLD FOR TARGETING HRPN13” (THE UNITED STATES OF AMERICA AS REPRESENTED BY THE …, priority 2021, published 2024).
Each block holds one molecule with its values, some of them ahead of it.

Tests used:
[1] = target: T1, hRpn13 Pru (Homo sapiens (Human), UniProt Q16186); assay: Isothermal titration calorimetry (ITC) of hRpn13 Pru binding; details: 25° C.
Protocol: ITC experiments were performed at 25° C. on a MicroCal iTC200 system (Malvern, PA, USA). hRpn13 Pru, XL5, XL5 derivative, or RA190 were prepared in buffer C. One aliquot of 0.5 μL followed by 17 or 18 aliquots of 2.1 μL of 200 μM hRpn13 Pru was injected at 750 r.p.m. into a calorimeter cell (volume […]) that contained 20 μM XL5, XL5 derivative, or RA190. Blank experiments were performed by replacing XL5, XL5 derivative, or RA190 with buffer in the cell and the resulting data subtracted from the experimental data during analyses. The integrated interaction heat values were normalized as a function of protein concentration and the data were fit with MicroCal Origin 7.0-based software implementing the “One Set of Sites” model to yield binding affinity Ka (1/Kd), stoichiometry, and other thermodynamic parameters. Dissociation constants (Kd) as determined by ITC as well as relative binding affinities of selected compounds are presented n Table 1, while additional information on named compounds including structures, synthesis, and characterization is presented in Examples 3-9: […]

[2] = target: T1, hRpn13 Pru; assay: Differential scanning fluorimetry, tryptophan quenching at 350 nm; type: binding; details: 1 μM hRpn13 Pru, 20° C.
From the text: We conducted in silico docking screens of commercial libraries containing in total 63 million compounds by using the hRpn13 Pru:hRpn2 structure and hRpn2-binding site of hRpn13 as a binding pocket. Twenty-two potential lead compounds were selected for validation by biophysical assays. hRpn13 W108 is partially exposed when free but buried by hRpn2, enabling tryptophan quenching by differential scanning fluorimetry (DSF at λ350) for assaying binding and this approach was used to screen for compound binding to this site. 20 μM compound (separately for twenty compounds) was incubated with 1 μM hRpn13 Pru and fluorescence emission at 350 nm measured. […] The compounds were separately added at 10-fold molar excess to 20 μM ^15N-labeled hRpn13 Pru and binding assessed at 25° C. by 2D NMR for samples dissolved in NMR buffer (20 mM sodium phosphate, 50 mM NaCl, 2 mM DTT, 10% DMSO-d6 (deuterated DMSO), pH 6.5). […] XL5 addition caused hRpn13 signals to shift from free state positions to an observable bound state whereas spectral changes were not induced by the other compounds tested. […]
DSF experiments were performed on a PrometheusNT.48 instrument (NanoTemper Technologies, Germany) at 20° C. […] Each sample was loaded into three high sensitivity capillaries (NanoTemper, cat #PR-C006) and the emission of intrinsic tryptophan fluorescence at 350 nm was monitored.

[3] = system: RPMI 8226 cells; assay: MTT cell metabolism / cell viability assay in RPMI 8226; type: cell-based; details: RPMI 8226, 48 hours, up to 40 μM
Protocol: Since previous hRpn13-targeting molecules induce apoptosis in multiple myeloma and colon cancer cells we tested whether XL5 restricts the RPMI 8226 multiple myeloma and HCT116 colon cancer cell lines by measuring metabolism with an MTT (3-(4,5-dimethylthiazol-2-yl)-2,5-diphenyltetrazolium bromide) assay. Experiments were also conducted in parallel with a HCT116 colon cancer cell line in which the exon encoding hRpn13 C88 is deleted, named trRpn13; this cell line expresses a truncated hRpn13 protein with a defective Pru and inability to bind the proteasome28. RPMI 8226 and WT (wild-type) or trRpn13 HCT116 cells seeded at 8,000 and 4,000 cells per well were treated with varying concentrations of XL5 extending to 40 μM and compared to cells incubated with equivalent amounts of DMSO vehicle control.
HCT116 WT or trRpn13 cells were seeded at 4,000 cells/well whereas RPMI 8226 cells were seeded at 8,000 cells/well with RPMI 1640 medium (no phenol red, Thermo Fisher Scientific 11835030) containing 2% fetal bovine serum in 96-well plates. Cells were treated with 0.4% DMSO (as a control) and this concentration was maintained with XL5, XL5-PROTACs XL5-VHL, XL5-VHL-2, XL5-CRBN, or XL5-IAP, and E3 ligands VHL-Ac, thalidomide (Selleckchem, catalog NO. S1193), or IAP-Bz at 10 μM, 20 μM, 30 μM or 40 μM concentration. After 48 hours, 0.35 mg/mL MTT was added for 4 hours of incubation. Stop solution (40% DMF, 10% SDS (W/V), 25 mM HCl, 2.5% acetic acid in H2O) was added to the cells and incubated overnight. Absorbance at 570 nm was measured by using CLARIOstar (BMG LABTECH).

[4] = Reactivity in mouse serum by LC-MS; type: in vitro ADME; details: 0.2 μM, room temperature, 24-hour time period
Protocol: To test for covalent interaction, an hRpn13 Pru sample was incubated with 10-fold molar excess XL5 or DMSO (as a vehicle control) and subjected to liquid chromatography-mass spectrometry (LC-MS). […] To test for general reactivity of XL5 towards exposed cysteines, 40 μM XL5 was incubated at 4° C. for two hours with 2 mM reduced L-glutathione serving as representative of a non-specific interactor with exposed cysteines. XL5-ligated glutathione was detected at only 2% abundance (FIG. 2B). Under identical conditions, 40 μM RA190 reacted with 2 mM reduced L-glutathione to yield products with one or two molecules ligated at 14% or 30% abundance, respectively. We also tested XL5 reactivity by incubating it at 0.2 μM with mouse serum (BioIVT) and monitoring the effect by LC-MS over a 24-hour time period to find only 6% reduction in the unligated compound.
To check for reactivity of XL5 in mouse serum, 0.2 μM XL5 was mixed with mouse serum (BioIVT) and aliquots of the spiked mixture left at room temperature for 0, 4, 8 and 24 hours. For each time point, six samples were extracted using 75% acetonitrile and 0.075% formic acid. The supernatant was transferred to polypropylene injection vials for LC-MS analysis. […]

[5] = target: T1, hRpn13 Pru; assay: 2D NMR (1H,15N HSQC) binding to 15N-labeled hRpn13 Pru; details: assessed by ITC and NMR
From the text: We conducted in silico docking screens of commercial libraries containing in total 63 million compounds by using the hRpn13 Pru:hRpn2 structure and hRpn2-binding site of hRpn13 as a binding pocket. Twenty-two potential lead compounds were selected for validation by biophysical assays. hRpn13 W108 is partially exposed when free but buried by hRpn2, enabling tryptophan quenching by differential scanning fluorimetry (DSF at λ350) for assaying binding and this approach was used to screen for compound binding to this site. 20 μM compound (separately for twenty compounds) was incubated with 1 μM hRpn13 Pru and fluorescence emission at 350 nm measured. […] The compounds were separately added at 10-fold molar excess to 20 μM ^15N-labeled hRpn13 Pru and binding assessed at 25° C. by 2D NMR for samples dissolved in NMR buffer (20 mM sodium phosphate, 50 mM NaCl, 2 mM DTT, 10% DMSO-d6 (deuterated DMSO), pH 6.5). […]
For screening by ^1H, ^15N HSQC experiments, small molecule dissolved in DMSO-d6 was added to 20 μM or 250 μM ^15N-labeled hRpn13 Pru at a molar excess of 2-fold (for XL5) or 10-fold (for all compounds tested) in NMR buffer (20 mM sodium phosphate, 50 mM NaCl, 2 mM DTT, 10% DMSO-d6, pH 6.5). […] Three ^13C-half-filtered NOESY experiments were recorded with a 100 ms mixing time on asymmetrically labeled samples dissolved in NMR buffer. […]

[6] = system: hRpn13 / hRpn13-Pru; assay: Immunoblot of hRpn13 species in RPMI 8226 cell lysates; type: cell-based, human; details: RPMI 8226 WT, 100 nM, 24 hours
Protocol: HCT116 WT, HCT116 trRpn13, RPMI 8226 or 293T cells were collected and washed with PBS followed by lysing in 1% Triton-TBS lysis buffer (50 mM Tris-HCl, pH 7.5, 150 mM NaCl, 1 mM PMSF) supplemented with protease inhibitor cocktail (Roche). Total protein concentration was determined by bicinchoninic acid (Pierce). Protein lysates were prepared in 1χ LDS (ThermoFisher, NP0007) buffer with 100 mM DTT and heating at 70° C. for 10 min, loaded onto 4-12% Bis-Tris polyacrylamide gels (Life Technologies), subjected to SDS-PAGE and transferred to Invitrolon polyvinylidene difluoride membranes (Life Technologies). The membranes were blocked in Tris-buffered saline with 0.1% Tween-20 (TBST) supplemented with 5% skim milk, incubated with primary antibody, washed in TBST, incubated with secondary antibody and washed extensively in TBST. Pierce™ ECL Western Blotting Substrate (32106; Thermo Fisher Scientific) or Amersham™ ECL™ Primer Western Blotting Detection Reagent (cytiva) was used for antibody signal detection.
To test whether the XL5-PROTACs cause ubiquitination and degradation of hRpn13, lysates from RPMI 8226 (FIG. 5C) cells treated with 40 μM XL5 orXL5-PROTAC compared to DMSO vehicle control were immunoprobed for hRpn13 and β-actin (loading control).

T1 sequence (Q16186 1-150): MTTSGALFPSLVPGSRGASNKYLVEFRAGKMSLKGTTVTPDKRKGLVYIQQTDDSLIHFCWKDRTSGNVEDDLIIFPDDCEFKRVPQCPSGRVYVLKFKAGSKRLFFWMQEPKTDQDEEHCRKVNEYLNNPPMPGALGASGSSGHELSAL

SMILES: Cl.N[C@@H](Cc1ccccc1)C(=O)N1C/C(=C/c2ccc(Cl)c(Cl)c2)C(=O)/C(=C\c2ccc(Cl)c(Cl)c2)C1 [RA190, reference compound]
binding detected by ITC [1]: did not detect binding | tryptophan fluorescence emission quenching at 350 nm [2]: titration-dependent reduction in λ350 signal

SMILES: CC(=O)N[C@H](C(=O)N1C[C@H](O)C[C@H]1C(=O)N[C@@H](C)c1ccc(-c2scnc2C)cc1)C(C)(C)C [VHL-Ac, reference compound]
metabolic activity / cell viability (MTT) [3]: did not affect metabolic activity

SMILES: CC(C)C[C@H](NC(=O)[C@H](CCc1ccccc1)NC(=O)CN1CCOCC1)C(=O)N[C@@H](Cc1ccccc1)C(=O)N[C@@H](CC(C)C)C(=O)[C@@]1(C)CO1 [carfilzomib, reference compound]
hRpn13-Pru level after proteasome inhibitor [6]: reduced levels of hRpn13-Pru

SMILES: O=C1CCC(N2C(=O)c3ccccc3C2=O)C(=O)N1 (centres unmarked) [thalidomide, reference compound]
metabolic activity / cell viability (MTT) [3]: did not affect metabolic activity

Next, values leading:

reduction in the unligated compound in mouse serum [4]: 6%
SMILES: Cc1ccc(C(=O)Nc2cccc(/C=C(\C#N)C(=O)Nc3ccccc3C(=O)O)c2)cc1 [XL5]

Kd ([1]; 200 μM hRpn13 Pru into 20 μM compound, buffer C): 1740 ± 350 nM | change of affinity for hRpn13 Pru relative to XL5 [5]: little effect
SMILES: CNc1ccc(C(=O)Nc2cccc(/C=C(\C#N)C(=O)Nc3ccccc3C(=O)O)c2)cc1 [XL24]
